Experimental data published in patent US8530477B2, “Tropane urea derivatives, preparation thereof and therapeutic application thereof as modulators of the activity of 11betaHSD1” (Sanofi, priority 2008, dated 2013).

Legend:
[1] = target: T1, 11beta-HSD1 enzyme (Homo sapiens, UniProt P28845); assay: SPA (Scintillation Proximity Assay) of in vitro inhibitory activity on 11beta-HSD1, 384-well format; assay type: biochemical; settings: recombinant 11beta-HSD1 produced in yeast S. cerevisiae; 3H-cortisone, NADPH; cortisol formed; read-out: concentration which inhibits 50% of the activity of 11beta-HSD1 (IC50)
T1 construct: made in house; host or cells: Saccharomyces cerevisiae
T1 sequence (P28845 whole entry, species assumed): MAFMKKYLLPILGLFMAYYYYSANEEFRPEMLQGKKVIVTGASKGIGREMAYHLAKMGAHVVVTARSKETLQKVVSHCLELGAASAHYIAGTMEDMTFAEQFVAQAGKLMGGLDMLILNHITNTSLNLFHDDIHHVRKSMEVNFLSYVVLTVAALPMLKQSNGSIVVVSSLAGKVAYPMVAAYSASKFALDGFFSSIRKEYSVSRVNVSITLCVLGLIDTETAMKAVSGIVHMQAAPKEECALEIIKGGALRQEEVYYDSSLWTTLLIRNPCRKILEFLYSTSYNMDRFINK
Procedure: The compounds according to the invention were the subject of pharmacological assays for determining their inhibitory effect on the 11beta-HSD1 enzyme which is an enzyme involved in lipid metabolism or glucose metabolism.
These assays consisted in measuring the in vitro inhibitory activity of the compounds of the invention by means of an SPA (Scintillation Proximity Assay) in 384-well format. Recombinant 11beta-HSD1 protein was produced in the yeast S. cerevisiae. The reaction was carried out by incubating the enzyme in the presence of ^3H-cortisone and of NADPH, in the absence or presence of an increasing concentration of inhibitor. SPA beads coupled to an anti-mouse antibody, pre-incubated with an anti-cortisol antibody, made it possible to measure the amount of cortisol formed during the course of the reaction.
The inhibitory activity with respect to the 11beta-HSD1 enzyme is given by the concentration which inhibits 50% of the activity of 11beta-HSD1 (IC50).

[2] = target: T2, 11βHSD1 in the eyes (Homo sapiens, UniProt P28845); settings: healthy volunteers; after seven days of treatment; cited from earlier work
T2 construct: host or cells: healthy volunteers (in vivo, eye)
T2 sequence (P28845 whole entry): as the sequence (P28845 whole entry, species assumed) above

[3] = target: T3, 11βHSD1 (Homo sapiens, UniProt P28845); settings: slim volunteer patients and type 2 diabetics; cited from earlier work
T3 sequence (P28845 whole entry): as the sequence (P28845 whole entry, species assumed) above

[4] = target: T3, 11βHSD1; parameters: host or cells: healthy volunteers (in vivo, bone); settings: healthy volunteers; cited from earlier work
[5] = target: T3, 11βHSD1; parameters: host or cells: elderly human individuals (in vivo); settings: elderly individuals; cited from earlier work

Compound	IC50 [1] [nM]	IOP (intraocular pressure) reduced by [2] [%]	insulin sensitivity [3]	bone formation markers [4]	bone resorption markers [4]	verbal fluidity and verbal memory [5]
CS(=O)(=O)N1CCN(c2ccc(OCC3CC4CCC(C3)N4C(=O)NC3C4CC5CC3CC(O)(C5)C4)cc2)CC1 (stereo not drawn) [Compound No. 17, endo-3-[4-(4-Methanesulfonylpiperazin-1-yl)phenoxymethyl]-8-azabicyclo-[3.2.1]octane-8-carboxylic acid (trans-5-hydroxyadamantan-2-yl)amide]	4					
CC1(C)[C@@H](OC(=O)CCC(=O)O)CC[C@]2(C)[C@H]3C(=O)C=C4[C@@H]5C[C@@](C)(C(=O)O)CC[C@]5(C)CC[C@@]4(C)[C@]3(C)CC[C@@H]12 [carbenoxolone]		18	improves insulin sensitivity	without any change	decrease	improves verbal fluidity and verbal memory
CS(=O)(=O)N1CCN(c2ccc(OC3CC4CCC(C3)N4C(=O)NC3C4CC5CC3CC(O)(C5)C4)cc2)CC1 (stereo not drawn) [compound 5, exo-3-[4-(4-Methanesulfonylpiperazin-1-yl)phenoxy]-8-azabicyclo-[3.2.1]octane-8-carboxylic acid (trans-5-hydroxyadamantan-2-yl)amide]	10					
